The target of data set [1] is T1, ITK (C-terminal HiBiT-tagged Molt4 cells) (Homo sapiens, UniProt Q08881).
T1 construct: expressed in transfected cells; host or cells: Molt4 (ATCC CRL-1552), monoclonal clone 1C10, engineered to express HiBiT-tagged ITK
T1 sequence (Q08881 1-620): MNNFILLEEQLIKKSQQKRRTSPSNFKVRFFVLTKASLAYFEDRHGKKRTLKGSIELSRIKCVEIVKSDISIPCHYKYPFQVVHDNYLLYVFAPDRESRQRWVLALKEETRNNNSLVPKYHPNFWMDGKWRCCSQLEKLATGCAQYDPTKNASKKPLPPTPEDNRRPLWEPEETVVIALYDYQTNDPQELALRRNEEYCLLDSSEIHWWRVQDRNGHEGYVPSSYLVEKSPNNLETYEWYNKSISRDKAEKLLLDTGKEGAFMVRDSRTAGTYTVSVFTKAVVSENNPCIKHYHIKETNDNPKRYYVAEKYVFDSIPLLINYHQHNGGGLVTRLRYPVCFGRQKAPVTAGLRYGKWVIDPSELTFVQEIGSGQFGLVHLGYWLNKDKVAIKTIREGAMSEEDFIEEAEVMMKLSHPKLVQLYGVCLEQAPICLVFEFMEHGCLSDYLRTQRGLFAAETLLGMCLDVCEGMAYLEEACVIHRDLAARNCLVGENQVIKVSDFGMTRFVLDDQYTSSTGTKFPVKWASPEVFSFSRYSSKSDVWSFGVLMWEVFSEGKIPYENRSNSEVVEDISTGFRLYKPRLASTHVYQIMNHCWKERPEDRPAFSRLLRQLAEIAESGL
Kind of data set: ITK Degradation HiBiT Assay. The data set is classed as cell-based. The conditions noted are these: for DC50: 4 hrs incubation, best fit IC50 used as DC50; for Dmax: MOLT-4, 4 hrs incubation. How it is done: Compounds provided herein were assayed in vitro with ITK HiBit cell lines. Compound dilution series (11-point, 5-fold dilutions in DMSO, columns 2-12 with replicate in rows A/B, C/D, E/F, G, and H at 2000× the final required concentrations were prepared in 96-well plate (Falcon, cat. no. 353077). Column 1, rows A-H were control DMSO. The 2000× solutions ranged from 2 mM to 1.024 nM (final assay concentration range 1 μM to 0.512 pM). The 2000×solutions were added to cells in 10 μL volume, for a final DMSO concentration of 0.5% and final assay compound concentration of 1×. For the cells, C-terminal HiBiT-tagged Molt4 cells (ATCC CRL-1552, monoclonal cell line clone 1C10) were plated at 1×10^6 cells/mL, 100 μL/well ([…]) in complete RPMI (10% FBS, 1% L-glutamine). The cells were incubated with compounds 1-25, 31, and 31 for 4 hrs at 32° C./6% CO2.
Following incubation, 100 μL of complete Nano-Glo HiBiT Lytic Detection Reagent (Nano-Glo HiBiT Lytic Buffer with 1:50 Nano-Glo HiBiT Lytic Substrate and 1:100 LgBiT Protein; Promega cat. no. N3O40) was added. Cells were further incubated for 10 min at room temperature. Luminescence units (LU) were read on an EnVision plate reader (Perkin Elmer, 0.1 sec per well). Percent ITK remaining per sample was calculated as follows: […]
Using Graphpad Prism, % ITK remaining values were plotted as a function of compound concentration. To determine DC50 and Dmax values, resulting curves were fit to the Prism curve-fitting equation “log(inhibitor) vs response−Variable slope (four parameters)” (reported best fit value IC50 used as DC50). ITK was measured with antibody-based MSD (Meso-Scale Discovery) assays shown below.

In data set [2] the target is T2, ITK (Jurkat or Molt4 cells) (Homo sapiens, UniProt Q08881).
T2 construct: either human Jurkat (Clone E6-1 ATCC TIB-152) or Motl4 (ATCC CRL-1552), were plated; endogenous in cells; host or cells: Jurkat Clone E6-1 (ATCC TIB-152) or Molt4 (ATCC CRL-1552)
T2 sequence (Q08881 1-620): T1 sequence (Q08881 1-620)
The data set is described as follows: ITK Degradation MSD (Meso Scale Discovery) Assay. The data set is classed as cell-based. The conditions noted are these: 4 or 6 hrs incubation; for DC50: best fit IC50 used as DC50. In outline: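 Jurkat or Molt4 cells at 1×10^6 cells/mL in RPMI/10% FBS treated 4 or 6 hr at 32° C with 7-point, 5-fold compound dilutions (0.5% DMSO). Lysate ITK quantified by MSD sandwich ECL immunoassay; % ITK remaining fitted by four-parameter curve, IC50 taken as DC50, plus Dmax.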

Data set [3] is described as follows: Mouse PK analysis, plasma concentration by LC/MS/MS after oral administration. The data set is classed as in vivo. The following applies: mice; for concentration at 2 h: timepoint 2 h; for concentration at 6 h: timepoint 6 h. How it is done: Mouse PK Analysis Compounds 17 and 18 were administered to mice orally. After six hours or twenty-four hours, splenocyte cells were harvested. ITK was evaluated by Western blotting. Plasma concentrations were determined by LC/MS/MS. Plasma samples were protein precipitated by addition of 100 μl of acetonitrile containing 50 ng/ml of internal standard. The resulting mixture was vortexed and centrifuged at 4000 rpm for five minutes. An aliquot of the resultant supernatant (75 μl) was added to 75 μl of 0.1% formic acid in water to constitute the final sample for injection. Samples were injected on a Shimadzu Exion LC Binary Gradient AD Pump HLPC system connected to a Sciex QTRAP 6500+ mass spectrometer. 5 μL of sample was injected onto a Waters Acquity UPLC BEH C18 column 130A (2.1×30 mm, […]) at 40° C. utilizing a flow rate of 700 μL/minute.
Mobile Phase A was 0.1% formic acid in water and mobile phase B was 0.1% formic acid in acetonitrile. A linear gradient of 15-95% B over 1.0 minute was used. The mass spectrometer was operated in positive ion electrospray mode with multiple reaction monitoring for maximum sensitivity. Sciex Analyst software (version 1.6.3) was used for LC/MS/MS instrument control and acquisition. Compound concentration was determined against a standard curve of internal standard versus compound peak area ratio. Noncompartmental PK parameters were determined using Phoenix 32 software (version 8.2.0.4383) from Certara. Plasma concentrations from the LC/MS/MS analyses, dose, route of administration, and desired units were utilized for PK parameter calculations.

`Cc1ncsc1-c1ccc([C@H](C)NC(=O)[C@@H]2C[C@@H](O)CN2C(=O)[C@@H](NC(=O)CCN2CCC(CCC(=O)N3CC([C@@H](c4ccccc4)n4cc(NC(=O)c5n[nH]c6c5C[C@@H]5C(F)(F)[C@]5(C)C6)cn4)C3)CC2)C(C)(C)C)cc1` [Compound 26, (4aS,5aR)-5,5-difluoro-N-(1-((S)-(1-(3-(1-(3-(((S)-1-((2S,4R)-4-hydroxy-2-(((S)-1-(4-(4-methylthiazol-5-yl)phenyl)ethyl)carbamoyl)pyrrolidin-1-yl)-3,3-dimethyl-1-oxobutan-2-yl)amino)-3-oxopropyl)piperidin-4-yl)propanoyl)azetidin-3-yl)(phenyl)methyl)-1H-pyrazol-4-yl)-5a-methyl-1,4,4a,5,5a,6-hexahydrocyclopropa[f]indazole-3-carboxamide] came in with a 50% degradation concentration (DC50) in data set [1] of 6.61 nM.
With `Cc1ncsc1-c1ccc(CNC(=O)[C@@H]2C[C@@H](O)CN2C(=O)[C@@H](NC(=O)C2(F)CC2)C(C)(C)C)c(OCCCCCC(=O)N2CC([C@@H](c3ccccc3)n3cc(NC(=O)c4n[nH]c5c4C[C@@H]4C(F)(F)[C@]4(C)C5)cn3)C2)c1` [Compound 18, (4aS,5aR)-5,5-difluoro-N-(1-((S)-(1-(6-(2-(((2S,4R)-1-((S)-2-(1-fluorocyclopropane-1-carboxamido)-3,3-dimethylbutanoyl)-4-hydroxypyrrolidine-2-carboxamido)methyl)-5-(4-methylthiazol-5-yl)phenoxy)hexanoyl)azetidin-3-yl)(phenyl)methyl)-1H-pyrazol-4-yl)-5a-methyl-1,4,4a,5,5a,6-hexahydrocyclopropa[f]indazole-3-carboxamide], in data set [2], the Dmax was 95.1% and the DC50 was 1.47 nM. Further, in data set [3], the concentration at 2 h was 6.1 nM and the concentration at 6 h is 16.2 nM.
The compound `Cc1ncsc1-c1ccc(CNC(=O)[C@@H]2C[C@@H](O)CN2C(=O)[C@@H](NC(=O)C2(F)CC2)C(C)(C)C)c(OC2CN(c3ccnc(N4CC([C@@H](c5ccccc5)n5cc(NC(=O)c6n[nH]c7c6C[C@@H]6C(F)(F)[C@]6(C)C7)cn5)C4)c3)C2)c1` [Compound 35, (4aS,5aR)-5,5-difluoro-N-(1-((S)-(1-(4-(3-(2-(((2S,4R)-1-((S)-2-(1-fluorocyclopropane-1-carboxamido)-3,3-dimethylbutanoyl)-4-hydroxypyrrolidine-2-carboxamido)methyl)-5-(4-methylthiazol-5-yl)phenoxy)azetidin-1-yl)pyridin-2-yl)azetidin-3-yl)(phenyl)methyl)-1H-pyrazol-4-yl)-5a-methyl-1,4,4a,5,5a,6-hexahydrocyclopropa[f]indazole-3-carboxamide] displayed a Dmax in data set [1] of 35%.
Still for that read-out and setting: next, `Cc1ncsc1-c1ccc([C@H](C)NC(=O)[C@@H]2C[C@@H](O)CN2C(=O)[C@@H](NC(=O)CCCCCCCCCC(=O)N2CC([C@@H](c3ccccc3)n3cc(NC(=O)c4n[nH]c5c4C[C@@H]4C(F)(F)[C@]4(C)C5)cn3)C2)C(C)(C)C)cc1` [Compound 27, (4aS,5aR)-5,5-difluoro-N-(1-((S)-(1-(11-(((S)-1-((2S,4R)-4-hydroxy-2-(((S)-1-(4-(4-methylthiazol-5-yl)phenyl)ethyl)carbamoyl)pyrrolidin-1-yl)-3,3-dimethyl-1-oxobutan-2-yl)amino)-11-oxoundecanoyl)azetidin-3-yl)(phenyl)methyl)-1H-pyrazol-4-yl)-5a-methyl-1,4,4a,5,5a,6-hexahydrocyclopropa[f]indazole-3-carboxamide]: 35%.
Regarding `Cc1ncsc1-c1ccc([C@H](C)NC(=O)[C@@H]2C[C@@H](O)CN2C(=O)[C@@H](NC(=O)CCCCCCCC(=O)N2CC([C@@H](c3ccccc3)n3cc(NC(=O)c4n[nH]c5c4C[C@@H]4C(F)(F)[C@]4(C)C5)cn3)C2)C(C)(C)C)cc1` [Compound 28, (4aS,5aR)-5,5-difluoro-N-(1-((S)-(1-(9-(((S)-1-((2S,4R)-4-hydroxy-2-(((S)-1-(4-(4-methylthiazol-5-yl)phenyl)ethyl)carbamoyl)pyrrolidin-1-yl)-3,3-dimethyl-1-oxobutan-2-yl)amino)-9-oxononanoyl)azetidin-3-yl)(phenyl)methyl)-1H-pyrazol-4-yl)-5a-methyl-1,4,4a,5,5a,6-hexahydrocyclopropa[f]indazole-3-carboxamide], in data set [1], the DC50 was 1.41 nM and the Dmax was 91%.
In the same order, the values of `Cc1ncsc1-c1ccc([C@H](C)NC(=O)[C@@H]2C[C@@H](O)CN2C(=O)[C@@H](NC(=O)CCCCCC(=O)N2CC([C@@H](c3ccccc3)n3cc(NC(=O)c4n[nH]c5c4C[C@@H]4C(F)(F)[C@]4(C)C5)cn3)C2)C(C)(C)C)cc1` [Compound 29, (4aS,5aR)-5,5-difluoro-N-(1-((S)-(1-(7-(((S)-1-((2S,4R)-4-hydroxy-2-(((S)-1-(4-(4-methylthiazol-5-yl)phenyl)ethyl)carbamoyl)pyrrolidin-1-yl)-3,3-dimethyl-1-oxobutan-2-yl)amino)-7-oxoheptanoyl)azetidin-3-yl)(phenyl)methyl)-1H-pyrazol-4-yl)-5a-methyl-1,4,4a,5,5a,6-hexahydrocyclopropa[f]indazole-3-carboxamide] are 19.7 nM and 84%.
Consider `Cc1ncsc1-c1ccc(CNC(=O)[C@@H]2C[C@@H](O)CN2C(=O)[C@@H](NC(=O)C2(F)CC2)C(C)(C)C)c(OCCOCCC(=O)N2CC([C@@H](c3ccccc3)n3cc(NC(=O)c4n[nH]c5c4C[C@@H]4C(F)(F)[C@]4(C)C5)cn3)C2)c1` [Compound 17, (4aS,5aR)-5,5-difluoro-N-(1-((S)-(1-(3-(2-(2-(((2S,4R)-1-((S)-2-(1-fluorocyclopropane-1-carboxamido)-3,3-dimethylbutanoyl)-4-hydroxypyrrolidine-2-carboxamido)methyl)-5-(4-methylthiazol-5-yl)phenoxy)ethoxy)propanoyl)azetidin-3-yl)(phenyl)methyl)-1H-pyrazol-4-yl)-5a-methyl-1,4,4a,5,5a,6-hexahydrocyclopropa[f]indazole-3-carboxamide], for which, in data set [2], the Dmax stood at 95.7% and the DC50 was found to be 4.51 nM. In data set [3], this compound yielded a concentration at 2 h of 1.8 nM and a concentration at 6 h of 4.5 nM.

Broadly, the DC50 is the concentration at which degradation of the target reaches its halfway point. A low value points to degradation at low concentration. Broadly, the Dmax is the greatest extent of degradation seen.

For the origin of these results see patent US20250002489A1, “BIFUNCTIONAL COMPOUNDS FOR DEGRADING ITK VIA UBIQUITIN PROTEOSOME PATHWAY” (NURIX THERAPEUTICS, INC., priority 2021, published 2025).
